Measured values as given in paper PMC6150381, “Design, Synthesis, and Biological Evaluation of N,N-Disubstituted-4-arylthiazole-2-methylamine Derivatives as Cholesteryl Ester Transfer Inhibitors” (Molecules : A Journal of Synthetic Chemistry and Natural …, 2017).
Like-named read-outs stand apart in the source and are kept apart here.

What was measured:
[1] = design: method as in PMID 26047975; conditions: phase II clinical trials; ref [18]; cited from earlier work
recombinant CETP [2] = target: T1, recombinant CETP (Homo sapiens, UniProt P11597); design: method as in previous work; conditions: in Figure 2; ref previous work; cited from earlier work
T1 construct: purchased Roar, New York, NY, USA RB-RPAK
T1 sequence (P11597 18-493): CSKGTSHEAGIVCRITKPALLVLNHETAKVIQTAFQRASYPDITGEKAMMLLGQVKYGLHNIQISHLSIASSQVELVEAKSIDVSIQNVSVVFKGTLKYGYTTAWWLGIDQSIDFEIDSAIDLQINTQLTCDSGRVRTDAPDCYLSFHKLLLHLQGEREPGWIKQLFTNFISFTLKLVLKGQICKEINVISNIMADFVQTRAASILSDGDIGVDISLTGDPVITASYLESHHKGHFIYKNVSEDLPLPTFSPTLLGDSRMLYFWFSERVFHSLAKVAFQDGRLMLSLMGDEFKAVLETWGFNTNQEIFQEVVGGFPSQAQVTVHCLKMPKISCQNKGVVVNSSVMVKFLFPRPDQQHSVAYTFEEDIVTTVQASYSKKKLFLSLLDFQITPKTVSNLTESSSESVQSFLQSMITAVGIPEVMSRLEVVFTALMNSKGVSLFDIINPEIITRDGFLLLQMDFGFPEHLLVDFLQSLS

recombinant CETP [3] = target: T1, recombinant CETP; experiment: In vitro CETP inhibitory assay (BODIPY-CE fluorescence assay, CETP RP Activity Assay Kit); type: biochemical; conditions: CETP inhibition, eight-point titration, each concentration tested three times
Description: The IC50 was determined from a curve fit of the data with each concentration tested three times.

[4] = In vitro metabolic stability study, human liver microsomes; type: in vitro ADME; conditions: for Remaining (T = 60 min): human liver microsome, with NADPH regenerating system; for microsomal CLint at 10 µM: human, liver microsomes, read-out: CL (clearance rate)
Description: (§1) Ten microliters (10 μL, 100 μM/L) of compounds and 80 μL of liver microsomes were mixed and incubated at 37 °C for 10 min, and then 10 μL of NADPH regenerating system was added. Samples were obtained at 0 min, 5 min, 10 min, 20 min, 30 min and 60 min. respectively, and 300 μL stop solution (cold in 4 °C, including 100 ng/mL tolbutamide and 100 ng/mL labetalol) was added to terminate the reaction. After oscillating for 10 min, the plates were centrifuged (4000 rpm) at room temperature for 20 min, and the supernatants were used for analysis.

[5] = In vitro metabolic stability study, rat liver microsomes; type: in vitro ADME; conditions: for Remaining (NCF = 60 min) / Remaining (T = 60 min): rat liver microsome; for Remaining (NCF = 60 min): no co-factor (no NADPH regenerating system); for Remaining (T = 60 min): with NADPH regenerating system; for microsomal CLint at 10 µM: rat, liver microsomes, read-out: CL (clearance rate)
Description: as §1

[6] = In vitro metabolic stability study, human liver microsomes; type: in vitro ADME; conditions: human liver microsome, no co-factor (no NADPH regenerating system)
[7] = ref [12],[13],[14], cited from earlier work

CCOC(=O)N1c2ccc(C(F)(F)F)cc2[C@@H](N(Cc2cc(C(F)(F)F)cc(C(F)(F)F)c2)c2ncc(OCCCC(=O)O)cn2)C[C@H]1CC [AMG-899]
increased HDL-C levels [1]: 179.1% | reduced LDL-C levels [1]: 45.3%

O=C(CCN(Cc1ccc(F)cc1)c1cccc(Oc2ccccc2)c1)Nc1ccccc1 [Compound 5]
IC50 (recombinant CETP [2]): 24.8 µM

COc1ccc(N(Cc2ccc(F)cc2)Cc2nc(-c3ccc([N+](=O)[O-])cc3)cs2)cc1OC [Compound 30, N-(4-Fluorobenzyl)-3,4-dimethoxy-N-((4-(4-nitrophenyl)thiazol-2-yl)methyl)aniline]
IC50 (recombinant CETP [3]): 0.79 ± 0.02 µM | metabolic stability (in words) ([4]; human and rat liver microsomes): weak human/rat liver microsome stability | Remaining (T = 60 min) [4]: 22.9% | microsomal CLint at 10 µM [4]: 48.1 µL/min/mg | Remaining (NCF = 60 min) [5]: 90.5% | Remaining (T = 60 min) [5]: 3.2% | microsomal CLint at 10 µM [5]: 122 µL/min/mg | melting point: 111 to 112.8 °C | Remaining (NCF = 60 min) [6]: 68.0%

COc1ccc(N(Cc2ccc(F)cc2)Cc2nc(-c3ccc(C(F)(F)F)cc3)cs2)cc1OC [Compound 32, N-(4-Fluorobenzyl)-3,4-dimethoxy-N-((4-(4-(trifluoromethyl)phenyl)thiazol-2-yl)methyl)aniline]
IC50 (recombinant CETP [3]): 0.97 ± 0.01 µM | Remaining (T = 60 min) [4]: 39.3% | microsomal CLint at 10 µM [4]: 29.8 µL/min/mg | Remaining (NCF = 60 min) [5]: 101.3% | Remaining (T = 60 min) [5]: 10.1% | microsomal CLint at 10 µM [5]: 79.3 µL/min/mg | melting point: 88.7 to 89.5 °C | Remaining (NCF = 60 min) [6]: 69.1%

COC(=O)CNc1ccc(-c2csc(CN(Cc3ccc(F)cc3)c3ccc(OC)c(OC)c3)n2)cc1 [Compound 47, Methyl(4-(2-(((3,4-dimethoxyphenyl)(4-fluorobenzyl)amino)methyl)thiazol-4-yl)phenyl)glycinate]
IC50 (recombinant CETP [3]): 3.54 ± 0.03 µM | melting point: 103.5 to 105.4 °C

COc1ccc(N(Cc2ccc(F)cc2)Cc2nc(-c3ccc(N4CCOCC4)cc3)cs2)cc1OC [Compound 49, N-(4-Fluorobenzyl)-3,4-dimethoxy-N-((4-(4-morpholinophenyl)thiazol-2-yl)methyl)aniline]
IC50 (recombinant CETP [3]): > 50 µM | melting point: 139 to 140.4 °C

CCOC(=O)N1c2ccc(C(F)(F)F)cc2[C@@H](N(Cc2cc(C(F)(F)F)cc(C(F)(F)F)c2)C(=O)OC)C[C@H]1CC [torcetrapib]
increase of HDL-C ([7]; human studies, dose-dependent): greater than 100% | LDL-C decreasing ([7]; human studies): up to 42% | increase in deaths ([7]; torcetrapib/atorvastatin group compared to the atorvastatin group): 58%
